Assay results taken from patent publication US5916906A, “Compositions comprising nicotinylalanine and an inhibitor of glycine conjugation or vitamin B6” (priority 1997, dated 1999).
Where two headings read alike, the source gives them in different places.

Legend:
[1] = acute 500 mg/kg racemic NAL (Connick 1992); cited from earlier work
[2] = Plasma pharmacokinetics of nicotinylalanine after i.v., i.p. and oral administration; type: in vivo, C57BL/6 mice; settings: for bioavailability / half-life / Tmax: 400 mg/kg; for Tmax: read-out: Time of peak plasma level of NAL (converted); for k el: read-out: Ke (converted)
Experimental: The purpose of this study was to determine the plasma pharmacokinetics of nicotinylalanine in fasted, female C57BL/6 mice after intravenous (i.v.), intraperitoneal (i.p.), and oral (p.o.) administration of equivalent doses of nicotinylalanine at 400 mg/kg body weight. The analytic methods used in these studies were the same as described in Example 1 and Table 1 for Metabolic Studies.
Bioavailability of nicotinylalanine after p.o. and i.p. administration was determined by comparison of the areas under the plasma time curves with the area under the plasma time curve for the i.v. administration of an equivalent dose at 400 mg/kg into the tail vein. Time points were evaluated from five minutes to 1,440 minutes (24 hours) after dosing, although the rapid pharmacokinetics under each dosing regimen focused the time parameters to less than six hours.
Although there are several compartmental analyses which could be used to model the pharmacokinetic data, for derivation of pharmacokinetic parameters a simple non-compartmental analysis was selected. The computer program used to generate the parameters (Table 5) and for fitting the curves (FIGS. 7, 8) was the Lagran Program using the Lagrange Function. See, Rocci M. L. and Jusko W. J. 1983, "Lagran Program for Area and Moments in Pharmacokinetic Analysis", Comp. Prog. Biomed. 16, 203-212; and Yeh K. C. and Quan K. C. 1978, "A Comparison of Numerical Integrating Algorithms by Trapezoidal Lagrange and Spline Approximations", J. Pharmacokinet. Biopharmacol. 6, 79-93.

LP-BM5 Retrovirus = assay: Ecotropic virus XC plaque assay on spleen cells of treated LP-BM5 infected mice; type: in vivo, C57BL/6 mice; settings: for Virus titer, plaques per million spleen cells: four months after inoculation, mean ± standard deviation, NAL 400 mg/kg
From the text: FIG. 4A and 4B: Mean Number of Virus Particles as Determined from Plaques per Million Spleen Cells from Serially Sacrificed Mice at Monthly Intervals After Inoculation with LP-BM5 Retrovirus. […] Each ml of the virus pool contained 3.66 log PFU ecotropic virus as determined by XC Plaque Assay. Treatment in all groups began one day after virus inoculation, except for the NAL 400 Delay Group which began treatment two weeks after virus inoculation. Groups and treatments are as follows:
FIG. 4B: LP-BM5+PBS=as described above; NAL 400=virus positive, plus daily (M-F) i.p. injections of nicotinylalanine (400 mg/kg) only; NAL 400 delay=nicotinylalanine (400 mg/kg) only, injected i.p. daily (M-F) beginning two weeks after virus inoculation.
Ecotropic virus titers were determined using the XC plaque assay (Yetter R. A. et al., J. Exp. Med., 168, 623-635, 1988) and were performed on spleen cells cultured from all serially killed mice at the interim sacrifices as shown in Tables 2-A & 2-B). Spleens were weighed and cells were extruded with sterile media (RPMI 1640, with gentamycin and 10% fetal calf serum). Serial 10-fold dilutions were made and one ml of each dilution was overlayered onto a monolayer of SC-1 cells treated with 4 μg/ml polybrene. After 24 hours, the media was removed and washed and the SC-1 cells were fed with fresh media. When the monolayer was confluent, the plates were irradiated with UV light at 60 ergs/mm^2 /sec and overlayered with XC cells. When the XC cell layer was confluent, the plates were fixed with methanol and stained with Giemsa Stain. Plaques were counted on an Artek colony counter and confirmed by phase contrast microscopy. Values presented in FIG. 4A represent the mean of adjusted samples at three dilutions expressed as plaques per million spleen cells. Mean and standard deviations corresponding to each of the data points in FIGS. 4A and 4B are derived from three mice serially killed at interim sacrifice times.

[3] = Urinary N-methylnicotinamide in rats treated with nicotinylalanine (literature); type: in vivo; settings: following nicotinylalanine injection, inferred from urinary N-methylnicotinamide
From the text: As discussed above, these benefits of nicotinylalanine treatment are applicable to other diseases besides neurodegeneration. R. H. Decker, et al. (ibid) reported a 4-5 fold increase in N-methylnicotinamide levels in the urine of rats treated with nicotinylalanine. Since N-methylnicotinamide is a major urinary excretion product of nicotinamide in the rat, increases in the endogenous levels of nicotinamide following nicotinylalanine injection are at least 5 fold.

[4] = rats treated with nicotinylalanine (Decker); cited from earlier work
[5] = Toxicity observations and necropsy in LP-BM5 infected mice; type: in vivo, C57BL/6 mice
Experimental: Disease progression was monitored by measuring serum IgM levels by ELISA on all animals at monthly intervals during the course of disease. Three mice per group were randomly selected and sacrificed at monthly intervals (end of month one through four) of the study. Disease scores for each animal were recorded weekly based upon palpation of lymph nodes and spleen. Complete gross necropsies were performed on these euthanized animals and the ratio of recorded spleen to body weights was an additional indicator of diseases progression. […] Infection was quantified by ecotropic virus XC plaque assays of spleens removed from the interim sacrificed animals. The study was to be terminated when mice were either dead or disease scores were +4 in more than 50% of the vehicle-treated MAIDS controls (Group 1), which occurred at 19 weeks post-inoculation of the virus pool. However, as the remaining mice in Group 1 were slow to progress towards more severe disease (FIG. 5) or death (FIG. 6), the study was extended until a termination date of 28 weeks post-inoculation.

LP-BM5 MuLV Retrovirus = settings: cited from earlier work
[6] = within the first month of dosing

In the case of NC(CC(=O)c1cccnc1)C(=O)O (racemic) [NAL, γ-(3-pyridyl)-γ-oxo-α-aminobutyrate], the Behavioral effects [1] is given as “not to result in any behavioral effects”, the CL ([2]; NAL 400 mg/kg, i.p., fasted female mice) is given as 31.6 and the CL ([2]; NAL 400 mg/kg, p.o., fasted female mice) is given as 50.2. For the same molecule, the “Volume of distribution (Vdss), in words” value ([2]; especially in the oral dosage form) was “consistent with a compound well-distributed in aqueous compartments”, the “Bioavailability i.p. versus i.v. or oral, in words” value ([2]; i.p. compared to i.v. or oral) was “apparently greater however when the i.p. route is used” and the bioavailability ([2]; mouse, plasma, ip, NAL 400 mg/kg, i.p., fasted female mice, read-out: F (fraction bioavailable)) was 183%. The half-life ([2]; mouse, plasma, ip, NAL 400 mg/kg, i.p., fasted female mice, read-out: t1/2) was 24.9 min, the half-life ([2]; mouse, plasma, ip, i.p., read-out: t1/2 (half-life of plasma nicotinylalanine)) was ~25 min and the Tmax ([2]; mouse, plasma, ip) was ~5 min. The k el ([2]; mouse, plasma, ip, NAL 400 mg/kg, i.p., fasted female mice) was 0.000463 s⁻¹, the Vd/F ([2]; mouse, plasma, ip, NAL 400 mg/kg, i.p., fasted female mice, read-out: Vdss) was 0.821 L/kg and the half-life ([2]; mouse, plasma, iv, NAL 400 mg/kg, i.v., fasted female mice, read-out: t1/2) was 40.2 min. For the same molecule, the half-life ([2]; mouse, plasma, iv, i.v., read-out: t1/2 (half-life of plasma nicotinylalanine)) was ~40 min, the Tmax ([2]; mouse, plasma, iv) was ~5 min and the clearance ([2]; mouse, plasma, iv, NAL 400 mg/kg, fasted female mice) was 57.3 mL/min/kg. The k el ([2]; mouse, plasma, iv, NAL 400 mg/kg, i.v., fasted female mice) was 0.000287 s⁻¹, the Vd ([2]; mouse, plasma, iv, NAL 400 mg/kg, i.v., fasted female mice, read-out: Vdss) was 1.33 L/kg and the bioavailability ([2]; mouse, plasma, po, NAL 400 mg/kg, p.o., fasted female mice, read-out: F (fraction bioavailable)) was 105%. It also gave a half-life ([2]; mouse, plasma, po, NAL 400 mg/kg, p.o., fasted female mice, read-out: t1/2) of 58.7 min, a bioavailability ([2]; mouse, plasma, po, oral dose, read-out: fraction bioavailable (F)) of ~100% and a half-life ([2]; mouse, plasma, po, oral, read-out: t1/2 (half-life of plasma nicotinylalanine)) of ~60 min. It also gave a k el ([2]; mouse, plasma, po, NAL 400 mg/kg, p.o., fasted female mice) of 0.000197 s⁻¹, a Vd/F ([2]; mouse, plasma, po, NAL 400 mg/kg, p.o., fasted female mice, read-out: Vdss) of 3.35 L/kg and a Tmax ([2]; mouse, plasma, oral gavage) of ~10 min. For the same molecule, the “Nicotinamide plasma level versus control” value ([2]; oral NAL 400 mg/kg, transient) was “about twice control”, the “t1/2 oral versus i.p.” value ([2]; oral compared with i.p. dose) was “approximately twice as long” and the “t1/2 oral versus i.v.” value ([2]; oral compared with i.v. dose) was “approximately one and a half (11/2) times as long”. The “Virus titer, plaques per million spleen cells” value (LP-BM5 Retrovirus; ASA 20 mg/kg, AZT 1 mg/mL) was 3,410±4,606 plaques per million spleen cells, the “Virus titer, plaques per million spleen cells” value (LP-BM5 Retrovirus; delayed two weeks) was 796±463 plaques per million spleen cells and the “Increase in endogenous nicotinamide levels” value [3] was “at least 5 fold”. For the same molecule, the “Increase in N-methylnicotinamide levels in urine” value [4] was 4-5 fold.

For Cc1cn([C@H]2C[C@H](N=[N+]=[N-])[C@@H](CO)O2)c(=O)[nH]c1=O [AZT, 3'azido-3'deoxythymidine, reference compound], the “Deaths prior to termination of the study” value ([5]; 28-week study) was “one mouse”, the “Necropsy finding in mice that died” value ([5]; Groups 4 and 7) was “distended food filled small and large intestines” and the “Side-effect: melaninization” value [5, 6] was “melaninization of extremities, tail, and ears”. The “Side-effect: red-blood cell” value [5, 6] was “red-blood cell toxicities”, the “Disease progression (in words)” value (LP-BM5 MuLV Retrovirus; AZT 0.1 mg/kg (Eiseman 1991)) was “still delayed disease progression” and the “Control of LP-BM5 disease (in words)” value (LP-BM5 MuLV Retrovirus; AZT 0.5 mg/kg in drinking water, chronic (Eiseman 1991)) was “effective in controlling LP-BM5 disease”. The “Virus titer, plaques per million spleen cells” value (LP-BM5 Retrovirus; ASA 20 mg/kg, AZT 1 mg/mL) was 333±495 plaques per million spleen cells and the “Mice with detectable virus (plaques) in spleens” value (LP-BM5 Retrovirus; four months, AZT with or without 400 mg/kg NAL) was “two of the mice”.
